Experimental data from patent US5589568A (priority 1994, dated 1996).
Where a SMILES comes first, the peptide text is derived from it. Where no end group is shown, it is not given here. The star is where a group is joined. Dodecyl = CCCCCCCCCCCC*

Experiments:
[1] = target: T1, Go (Bos taurus, UniProt P08239); assay: steady state GTPase activity of Go in phospholipid vesicles; type: biochemical, bovine; conditions: for Turnover number Go 10 μg/ml: 10 μg/ml amine; for Turnover number Go 10 μg/ml / Turnover number Go 100 μg/ml / GTPase Go 100 μM / GTPase Go 10 μM: 15 min at 20° C.; for Turnover number Go 10 μg/ml / GTPase Go 100 μM / GTPase Go 10 μM: PE/PC/PS vesicles; for Turnover number Go 100 μg/ml: 100 μg/ml amine; for GTPase Go 100 μM: 100 μM peptide; for stimulation of GTPase activity: at higher concentrations, G protein not named in the sentence (Gi and Go tested); for Go ef. (apparent efficacy, maximum turnover number of GTPase activity): Table VI, receptor-based peptides; for GTPase Go 10 μM: 10 μM peptide; for ability to activate Gi and Go (in words): both Gi and Go, gramicidin S and dynorphin at 10 μM
T1 construct: proteins were extracted from bovine cerebral cortical membranes; from tissue; host or cells: bovine brain (cerebral cortical membranes)
Description: (§1) G proteins were reconstituted into phospholipid vesicles composed of dioleoyl-PC/bovine brain PS/1-palmitoyl,2-oleoyl-PE (3:4:3) as reported previously by Higashijima et al., 1988, incorporated herein by reference.

[2] = tested on: Gi; assay: steady state GTPase activity of Gi in phospholipid vesicles;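 on all read-outs here: Steady-state GTP hydrolysis by Gi measured in a detergent-free buffer containing 1.1 mM MgSO4 plus the specified guanine nucleotide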; type: biochemical, rabbit; conditions: for Turnover number Gi 10 μg/ml: 10 μg/ml amine; for Turnover number Gi 10 μg/ml / Turnover number Gi 100 μg/ml / GTPase Gi 100 μM / GTPase Gi 10 μM: 30 min at 30° C.; for Turnover number Gi 100 μg/ml: 100 μg/ml amine; for GTPase Gi 100 μM: 100 μM peptide; for GTPase Gi 100 μM / GTPase Gi 10 μM: PE/PC/PS vesicles; for Gi ef. (apparent efficacy, maximum turnover number of GTPase activity) / EC50: Table VI, receptor-based peptides; for EC50: read-out: Gi af. (apparent affinity, estimated by EC50 of GTPase activity); for GTPase Gi 10 μM: 10 μM peptide
Method: as §1
The concentration of free Mg^2+ in assay medium that contains 5 mM EDTA and no added Mg^2+ is estimated to be 0.1-0.2 nM according to Brandt et al., 1988 and 1983.

[3] = target: Gs (Homo sapiens, UniProt P63092); assay: steady state GTPase activity of Gs; type: biochemical; conditions: Table VI, receptor-based peptides
Method: Methods for the assay of steady state GTP hydrolysis and GTPγS binding have been described previously by Higashijima, 1987, and Ferguson, 1986, and incorporated herein by reference. Unless noted otherwise, assays of steady state GTP hydrolysis and of the binding and dissociation of guanine nucleotides were carried out in the buffer described previously, but without detergent and with 1.1 mM MgSO4 and the nucleotide specified in the text. When necessary, the concentration of free Mg^2+ was adjusted using EDTA buffers as described previously by Higashijima, 1987, and incorporated herein by reference.
The data set forth in the following tables represent data generated by the inventors employing the steady state GTP hydrolysis, expressed as molar turnover numbers, are described herein under the "Assay" section of the Experimental Procedures in Example 1. The data has been classified according to the criteria outlined below and the effects of each peptide and modified variant on Go, Gi, and Gs have been tabulated. Table III below sets forth data generated for various mastoparan analogues designed by the inventors, in comparison with the various naturally-occurring mastoparans (e.g., MP, MP-A and MP-T). Table IV sets forth similar data generated for various receptor-based peptides designed by the inventors based on a consideration of various G-protein linked receptors.
Apparent affinity (af.) and apparent efficacy (ef.) were estimated by EC50 and maximum turnover number of GTPase activity.

T1 sequence (P08239 2-354 limits assumed): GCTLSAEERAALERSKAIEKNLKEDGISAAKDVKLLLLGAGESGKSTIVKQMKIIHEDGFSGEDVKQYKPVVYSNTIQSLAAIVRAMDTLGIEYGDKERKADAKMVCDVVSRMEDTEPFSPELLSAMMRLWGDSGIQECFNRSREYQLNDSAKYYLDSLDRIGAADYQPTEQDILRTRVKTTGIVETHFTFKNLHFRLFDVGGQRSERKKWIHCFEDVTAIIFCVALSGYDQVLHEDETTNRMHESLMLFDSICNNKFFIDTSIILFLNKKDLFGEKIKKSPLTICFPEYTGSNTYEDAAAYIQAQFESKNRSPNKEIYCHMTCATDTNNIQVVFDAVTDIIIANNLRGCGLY
T1 sequence (P62871 2-340 partner limits assumed): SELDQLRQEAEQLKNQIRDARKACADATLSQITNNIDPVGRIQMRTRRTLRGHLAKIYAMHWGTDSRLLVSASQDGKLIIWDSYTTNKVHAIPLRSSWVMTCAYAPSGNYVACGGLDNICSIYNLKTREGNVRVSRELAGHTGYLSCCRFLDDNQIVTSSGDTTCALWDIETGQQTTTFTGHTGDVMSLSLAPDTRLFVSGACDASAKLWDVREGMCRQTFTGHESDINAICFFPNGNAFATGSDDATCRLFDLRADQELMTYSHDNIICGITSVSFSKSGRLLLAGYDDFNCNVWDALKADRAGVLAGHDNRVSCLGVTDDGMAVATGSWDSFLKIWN
T1 sequence (P63212 2-68 partner limits assumed): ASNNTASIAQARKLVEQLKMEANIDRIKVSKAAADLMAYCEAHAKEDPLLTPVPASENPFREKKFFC
Gs, sequence (P63092 whole entry): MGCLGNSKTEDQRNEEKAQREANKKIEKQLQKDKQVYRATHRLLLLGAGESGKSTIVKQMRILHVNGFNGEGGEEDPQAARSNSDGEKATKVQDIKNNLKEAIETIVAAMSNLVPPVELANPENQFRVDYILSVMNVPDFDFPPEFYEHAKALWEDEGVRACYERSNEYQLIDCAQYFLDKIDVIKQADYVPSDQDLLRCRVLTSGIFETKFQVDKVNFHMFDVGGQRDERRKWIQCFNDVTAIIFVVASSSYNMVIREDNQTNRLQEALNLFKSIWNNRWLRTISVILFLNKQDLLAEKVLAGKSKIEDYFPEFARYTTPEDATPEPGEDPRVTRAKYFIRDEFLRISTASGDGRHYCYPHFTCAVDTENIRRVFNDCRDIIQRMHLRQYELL

Compound	Turnover number Go 10 μg/ml [1]	Turnover number Go 100 μg/ml [1]	Turnover number Gi 10 μg/ml [2]	Turnover number Gi 100 μg/ml [2]	GTPase Go 100 μM [1]	GTPase Gi 100 μM [2]	further results
CCCCCCCCCCCCCCCC[N+](C)(C)Cc1ccccc1.[Cl-] [BAC (C16 ), reference compound]	1.4 min⁻¹	0.08 min⁻¹	0.04 min⁻¹	< 0.01 min⁻¹	–	–	–
CCCC[N+](CCCC)(CCCC)Cc1ccccc1.[Cl-] [BzBu3 NCl, reference compound]	0.07 min⁻¹	0.07 min⁻¹	0.04 min⁻¹	0.04 min⁻¹	–	–	–
α-Mating factor [reference compound]	–	–	–	–	0.19 min⁻¹	0.05 min⁻¹	stimulation of GTPase activity [1]: more than 3 fold
CPFRYQSLNTRARAKVI-NH2 [ER39]	–	–	–	–	–	–	Go ef. (apparent efficacy, maximum turnover number of GTPase activity) [1]: F (Fair (F): 2-5 fold); Gs ef. (apparent efficacy, maximum turnover number of GTPase activity) [3]: F (Fair (F): 2-5 fold); Gi ef. (apparent efficacy, maximum turnover number of GTPase activity) [2]: P (Poor (P): less than 2 fold); EC50 [2]: > 100 µM
Angiotensin II (DRVYIHPF; Angiotensin-2; UniProt P01019 25-32, looked up) [reference compound]	–	–	–	–	0.31 min⁻¹	0.23 min⁻¹	stimulation of GTPase activity [1]: more than 3 fold
CCCCCCCCCCCCSC[C@H](N)C(=O)N1CCC[C@H]1C(=O)N[C@@H](Cc1ccccc1)C(=O)N[C@@H](CCCNC(=N)N)C(=O)N[C@@H](Cc1ccc(O)cc1)C(=O)N[C@@H](CCC(N)=O)C(=O)N[C@@H](CO)C(=O)N[C@@H](CC(C)C)C(=O)N[C@@H](CCSC)C(=O)N[C@H](C(=O)N[C@@H](CCCNC(=N)N)C(=O)N[C@@H](C)C(=O)N[C@@H](CCCNC(=N)N)C(=O)N[C@@H](C)C(=O)N[C@@H](CCCCN)C(=O)N[C@H](C(=O)N[C@H](C(N)=O)[C@@H](C)CC)C(C)C)[C@@H](C)O [C12-ER39] (H-C(Dodecyl)PFRYQSLMTRARAKVI-NH2; N-terminus assumed)	–	–	–	–	–	–	Go ef. (apparent efficacy, maximum turnover number of GTPase activity) [1]: G (Good (G): 5-10 fold); Gs ef. (apparent efficacy, maximum turnover number of GTPase activity) [3]: F (Fair (F): 2-5 fold); Gi ef. (apparent efficacy, maximum turnover number of GTPase activity) [2]: G (Good (G): 5-10 fold); EC50 [2]: 3 to 10 µM
[D-Ala^2 ]Leu-enkephalin [DALE, reference compound]	–	–	–	–	0.06 min⁻¹	0.02 min⁻¹	–
Substance P [reference compound]	–	–	–	–	0.25 min⁻¹	0.09 min⁻¹	stimulation of Go ([1]; GTPase, Table II): more than 4 fold; stimulation of Gi ([2]; GTPase, Table II): more than 4 fold
Calcitonin [reference compound]	–	–	–	–	0.09 min⁻¹	0.01 min⁻¹	–
RPPGFSPFR [Bradykinin, reference compound]	–	–	–	–	0.05 min⁻¹	0.03 min⁻¹	–
Gramicidin S [reference compound]	–	–	–	–	0.47 min⁻¹	0.31 min⁻¹	GTPase Go 10 μM [1]: 0.17 min⁻¹; ability to activate Gi and Go (in words) ([1]; GTPase): somewhat stimulatory; GTPase Gi 10 μM [2]: 0.13 min⁻¹
luteinizing hormone releasing hormone [LHRH, reference compound]	–	–	–	–	0.04 min⁻¹	0.03 min⁻¹	–
CC[C@H](C)[C@H](NC(=O)CN)C(=O)NCC(=O)N[C@@H](C)C(=O)N[C@H](C(=O)N[C@@H](CC(C)C)C(=O)N[C@@H](CCCCN)C(=O)N[C@H](C(=O)N[C@@H](CC(C)C)C(=O)N[C@H](C(=O)N[C@H](C(=O)NCC(=O)N[C@@H](CC(C)C)C(=O)N1CCC[C@H]1C(=O)N[C@@H](C)C(=O)N[C@@H](CC(C)C)C(=O)N[C@H](C(=O)N[C@@H](CO)C(=O)N[C@@H](Cc1c[nH]c2ccccc12)C(=O)N[C@H](C(=O)N[C@@H](CCCCN)C(=O)N[C@@H](CCCNC(=N)N)C(=O)N[C@@H](CCCCN)C(=O)N[C@@H](CCCNC(=N)N)C(=O)N[C@@H](CCC(N)=O)C(=O)N[C@@H](CCC(N)=O)C(N)=O)[C@@H](C)CC)[C@@H](C)CC)[C@@H](C)O)[C@@H](C)O)C(C)C)C(C)C [Melittin, reference compound]	–	–	–	–	0.56 min⁻¹	0.40 min⁻¹	GTPase Go 10 μM [1]: 0.63 min⁻¹; ability to activate Gi and Go (in words) ([1]; GTPase): potency and efficacy roughly equivalent to that of mastoparan; GTPase Gi 10 μM [2]: 0,37 min^-1
Ac-WKKLLKLLKKLLKL-NH2 [CBP6, reference compound]	–	–	–	–	0.38 min⁻¹	0.06 min⁻¹	GTPase Go 10 μM [1]: 0.76 min⁻¹; ability to activate Gi and Go (in words) ([1]; GTPase): quite active; GTPase Gi 10 μM [2]: 0.51 min⁻¹
CCCCCCCCCCCCCCCCCC[N+](C)(C)Cc1ccccc1.[Cl-] [BAC (C18 ), reference compound]	1.1 min⁻¹	0.3 min⁻¹	0.03 min⁻¹	< 0.01 min⁻¹	–	–	–
CCCCCCCCCCCC[N+](C)(C)C.[Cl-] [C12 Me3 NCl, reference compound]	0.1 min⁻¹	0.5 min⁻¹	0.04 min⁻¹	0.04 min⁻¹	–	–	–
CCCCCCCCCCCCCCCCCC[N+](C)(C)C.[Cl-] [C18 Me3 NCl, reference compound]	0.61 min⁻¹	< 0.01 min⁻¹	0.04 min⁻¹	< 0.01 min⁻¹	–	–	–
CCCCCCCCCCCCCC[N+](C)(C)Cc1ccccc1.[Cl-] [BAC (C14), reference compound]	0.9 min⁻¹	0.2 min⁻¹	0.04 min⁻¹	< 0.01 min⁻¹	–	–	–
NC(=O)[C@@H]1CCCN1C(=O)[C@H](Cc1cnc[nH]1)NC(=O)[C@@H]1CCC(=O)N1 [TRH, thyrotropin releasing hormone, reference compound]	–	–	–	–	0.06 min⁻¹	0.03 min⁻¹	–
Melanostatin [reference compound]	–	–	–	–	0.05 min⁻¹	0.03 min⁻¹	–
Dynorphin [reference compound]	–	–	–	–	0.33 min⁻¹	0.10 min⁻¹	GTPase Go 10 μM [1]: 0.13 min⁻¹; ability to activate Gi and Go (in words) ([1]; GTPase): somewhat stimulatory
CCCCCCCCCCCCN [C12 NH3 Cl, dodecylamine]	0.18 min⁻¹	0.61 min⁻¹	0.06 min⁻¹	0.31 min⁻¹	–	–	stimulation of Gi by amines (in words) ([2]; Table III): stimulated Gi significantly
